The subject of one data set is Aedes mosquito. Kind of data set: Protection against mosquito biting and toxicity to mosquitoes. The class given is in vivo.
Data set [1] has as its target T1, PaOctR (Periplaneta octopamine receptor), cloned α-like OctR (Periplaneta americana, UniProt Q7YWB7).
T1 construct: Gq calcium readout
T1 sequence (Q7YWB7 1-628): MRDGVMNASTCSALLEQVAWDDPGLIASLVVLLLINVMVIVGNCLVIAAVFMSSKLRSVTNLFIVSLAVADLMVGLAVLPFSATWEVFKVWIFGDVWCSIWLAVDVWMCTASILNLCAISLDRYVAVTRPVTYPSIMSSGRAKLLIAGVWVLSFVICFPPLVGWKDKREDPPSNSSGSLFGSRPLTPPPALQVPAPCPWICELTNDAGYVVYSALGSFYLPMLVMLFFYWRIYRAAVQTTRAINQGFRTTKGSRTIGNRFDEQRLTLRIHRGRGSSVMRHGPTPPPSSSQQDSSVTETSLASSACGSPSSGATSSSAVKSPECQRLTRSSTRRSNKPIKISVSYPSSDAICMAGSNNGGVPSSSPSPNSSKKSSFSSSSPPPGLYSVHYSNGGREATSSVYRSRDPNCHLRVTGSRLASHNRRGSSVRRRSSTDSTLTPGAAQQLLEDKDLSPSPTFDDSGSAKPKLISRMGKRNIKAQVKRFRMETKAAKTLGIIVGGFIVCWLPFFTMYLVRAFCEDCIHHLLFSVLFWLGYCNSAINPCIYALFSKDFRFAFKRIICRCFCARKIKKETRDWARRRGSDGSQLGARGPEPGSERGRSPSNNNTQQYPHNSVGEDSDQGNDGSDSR
The data set is described as follows: OctR activation: change in intracellular calcium (CALCIUM 6QR dye, FlexStation 3) in stably transfected mammalian cells. In kind it is cell-based. Particulars: agonist. The text has this: (§1) Functional expression of cloned arthropod OctRs and human α2-ARs: The cDNAs for α-like OctRs from different arthropod species (e.g., Anopheles gambiae, Aedes aegypti, Periplaneta americana, Drosophila melanogaster, Ixodes scapularis, Balanus improvises) and for α2-AR subtypes from humans were individually subcloned into mammalian expression vectors. These plasmids, which harbor a resistance gene for the selection drug G418 and the cDNA sequence for the receptor of interest, were individually transfected into mammalian cells using a calcium phosphate precipitation method. G418 selection was then employed to generated stable clonal cell lines. Utilizing rapid filtration radioligand binding techniques, the cell surface density of receptor expression of the individual clonal cell lines was determined at equilibrium and those with similar high levels of expression were selected for further experiments. Briefly, binding conditions were 50 mM Tris binding buffer pH 7.4 at 25° C. and an ice-cold wash buffer 10 mM Tris-HCl, pH 7.4). The radioligand was [3H]rauwolscine and non-specific binding was determined in the presence of 10 μM atipamezole. Following the addition of membranes prepared from the clonal cell lines, samples were mixed and allowed 2 hr. to reach equilibrium before rapid filtration and washing through 0.3% PEI-treated GF/C filters. The radioactivity remaining on the filters was quantified by scintillation counting. Receptor density (Bmax) was back calculated knowing the specific activity of the radioligand and applying the equation for a square hyperbola model: Bmax=(Y·(KD+X))/X, where Y is [specifically bound radioligand] and X=[radio ligand concentration]. The affinity (KD) for the radioligand for each receptor was determined in separate saturation isotherm binding experiments using the same binding conditions as describe above.
(§2) Measurement of OctR activation by measuring changes in intracellular calcium: Activation of arthropod α-like OctRs increases intracellular calcium via a Gq-coupling mechanism. This involves activation of phospholipase C leading to an increase in intracellular inositol triphosphate (IP3) which then activates IP3-gated calcium channels in the endoplasmic reticulum causing a transient rise in intracellular calcium. These changes in intracellular calcium upon OctR activation were measured by loading cells with intracellular calcium sensitive dye CALCIUM 6QR and reading the change in calcium-induced fluorescent signal over time on a FlexStation 3 microplate reader.
Background: A change in cytosolic calcium serves as a functional read-out for many receptors and channels.

Data set [2] concerns the target T2, Hsα2C-AR (human α2C adrenergic receptor) (Homo sapiens, UniProt P18825).
T2 construct: expressed in transfected cells
T2 sequence (P18825 1-462): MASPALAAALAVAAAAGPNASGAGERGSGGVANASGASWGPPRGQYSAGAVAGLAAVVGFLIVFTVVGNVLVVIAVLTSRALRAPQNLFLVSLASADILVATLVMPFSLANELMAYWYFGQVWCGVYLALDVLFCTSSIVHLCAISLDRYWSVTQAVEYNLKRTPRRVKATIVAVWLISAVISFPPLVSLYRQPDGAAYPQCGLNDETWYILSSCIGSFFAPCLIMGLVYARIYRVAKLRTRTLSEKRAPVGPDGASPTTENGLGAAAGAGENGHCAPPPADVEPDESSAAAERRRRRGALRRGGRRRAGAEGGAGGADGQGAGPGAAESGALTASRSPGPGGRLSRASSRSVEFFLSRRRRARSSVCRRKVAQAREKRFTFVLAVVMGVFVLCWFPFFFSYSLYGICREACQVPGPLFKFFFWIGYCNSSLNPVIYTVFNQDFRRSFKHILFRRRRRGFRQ
The data set is described as follows: [3H]rauwolscine competition radioligand binding, membranes of clonal mammalian cell lines. The note with it: 50 mM Tris pH 7.4, 25° C., 2 hr, Cheng-Prusoff.
Description: as §1
(§3) Measurement of compound affinities by competition radioligand binding: Affinities (Ki) for compounds were determined by [3H]rauwolscine competition binding using the same binding conditions as described above. The Ki values were calculated from IC50 values using the Cheng-Prusoff equation.

The target in data set [3] is T3, Hsα2A-AR (human α2A adrenergic receptor) (Homo sapiens, UniProt P08913).
T3 construct: expressed in transfected cells; membranes
T3 sequence (P08913 whole entry): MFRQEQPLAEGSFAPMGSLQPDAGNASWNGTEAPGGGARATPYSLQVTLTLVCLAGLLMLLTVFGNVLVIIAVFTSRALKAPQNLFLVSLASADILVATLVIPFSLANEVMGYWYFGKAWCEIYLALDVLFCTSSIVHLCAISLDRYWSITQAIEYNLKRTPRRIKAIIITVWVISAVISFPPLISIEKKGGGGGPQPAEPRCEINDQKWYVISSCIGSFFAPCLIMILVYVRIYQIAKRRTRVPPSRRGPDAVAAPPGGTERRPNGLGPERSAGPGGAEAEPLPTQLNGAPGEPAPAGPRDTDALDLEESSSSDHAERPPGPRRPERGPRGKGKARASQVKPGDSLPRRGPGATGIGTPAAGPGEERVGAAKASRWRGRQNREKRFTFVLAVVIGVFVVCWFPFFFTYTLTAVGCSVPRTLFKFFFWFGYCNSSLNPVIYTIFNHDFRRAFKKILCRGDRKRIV
The data set is described as above. Particulars: 50 mM Tris pH 7.4, 25° C., 2 hr, Cheng-Prusoff.
Description: as §1, §3

Data set [4] has as its system AeOctR (Aedes octopamine receptor), cloned α-like OctR. Kind of data set: OctR activation: change in intracellular calcium (CALCIUM 6QR dye, FlexStation 3) in stably transfected mammalian cells. The class given is cell-based, Aedes aegypti. The note with it: agonist.
Description: as §1, §2

The next data set is described as follows: Volatility. In kind it is physicochemical.

One may read the EC50 as the concentration giving half of the maximal effect. What is called Ki is a dissociation constant, usually derived from enzyme kinetics or from competition with a known ligand. In the case of `C=C(c1cnc[nH]1)c1cccc(C)c1C` [AZ0027], the “protection against mosquito biting” value in the data set on Aedes mosquito (Aedes mosquito) was “protects against Aedes mosquito biting”. The toxicity to mosquitoes result in the data set on Aedes mosquito (DEET: at the lowest concentration that produces maximal protection against biting (LC50)) is given as “non-toxic to mosquitoes”. Moreover, in the data set on Aedes mosquito (protection against mosquito biting), the “potency relative to DEET” value is “over 500 fold”. In addition, the 50% effective concentration (EC50) in data set [1] is 0.00044 ± 0.00023 µM; in data set [4], 0.012 ± 0.0032 µM. Moreover, the Ki in data set [2] was found to be 0.231 ± 0.046 µM; in data set [3], 0.109 ± 0.016 µM. Moreover, the volatility result in “Volatility” is given as “low volatility”.
